Earlier results, collected in US9024067B2, “Process for preparing carboxylic acid amides useful in the treatment of muscular disorders” (Canbex Therapeutics Limited, priority 2009, dated 2015).

Tested on: spasticity in CREAE mice
Conditions: initial studies (WO2005/080316)

CC(CO)NC(=O)c1cccc(/C=C\CCCC(=O)N(C)C)c1 (stereo not shown) [VSN-16]
effect on spasticity: marked effect on spasticity
